Measured values from PubChem BioAssay AID248 (DTP/NCI, 2004).
Values joined by “and” are separate entries in the source; they are usually repeats but may differ in a detail not shown here. Identical values can stand only once. Inconclusive results and toxic doses are left out. Rule as the data show it: active = T/C of 150% or more; inactive = T/C below 125%.

System: L1210 leukemia ip in BDF1 mice, survival T/C
Test: NCI In Vivo Anticancer Drug Screen. Data for tumor model L1210 Leukemia (intraperitoneal) in B6D2F1 (BDF1) mice
Settings: higher = longer survival
Procedure, shortened: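 Ratio derived from survival: compound-dosed mice over vehicle-dosed mice, all bearing a transplantable tumor.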

[1] = endpoint: mean survival time, dose: 50.0 mg/kg/injection, schedule: Q01DX009 (ip), vehicle: Klucel (hydroxypropylcellulose) (HPC)
[2] = endpoint: mean survival time, dose: 100.0 mg/kg/injection, schedule: Q01DX009 (ip), vehicle: Klucel (hydroxypropylcellulose) (HPC)
[3] = endpoint: mean survival time, dose: 100.0 mg/kg/injection, schedule: Q04DX003 (ip), vehicle: Klucel (hydroxypropylcellulose) (HPC)
[4] = endpoint: mean survival time, dose: 200.0 mg/kg/injection, schedule: Q01DX009 (ip), vehicle: Klucel (hydroxypropylcellulose) (HPC)
[5] = endpoint: mean survival time, dose: 200.0 mg/kg/injection, schedule: Q04DX003 (ip), vehicle: Klucel (hydroxypropylcellulose) (HPC)
[6] = endpoint: mean survival time, dose: 400.0 mg/kg/injection, schedule: Q04DX003 (ip), vehicle: Klucel (hydroxypropylcellulose) (HPC)

Measured: T/C

CO[C@H]1/C=C/O[C@@]2(C)Oc3c(C)c(O)c4c(O)c(c(/C=N/N5C(C)CN(Cc6ccccc6)CC5C)c(O)c4c3C2=O)NC(=O)/C(C)=C\C=C\[C@H](C)[C@H](O)[C@@H](C)[C@@H](O)[C@@H](C)[C@H](OC(C)=O)[C@@H]1C (some centres undefined)
inactive: endpoint: mean survival time, dose: 12.5 mg/kg/injection, schedule: Q02DX Z (oral), vehicle: Klucel (hydroxypropylcellulose) (HPC) 100 % of control | endpoint: mean survival time, dose: 25.0 mg/kg/injection, schedule: Q02DX Z (oral), vehicle: Klucel (hydroxypropylcellulose) (HPC) 95 % of control and 98 % of control | [1] 97 % of control | endpoint: mean survival time, dose: 50.0 mg/kg/injection, schedule: Q02DX Z (oral), vehicle: Klucel (hydroxypropylcellulose) (HPC) 93 % of control and 96 % of control | [2] 101 % of control | endpoint: mean survival time, dose: 100.0 mg/kg/injection, schedule: Q02DX Z (oral), vehicle: Klucel (hydroxypropylcellulose) (HPC) 100 % of control and 106 % of control | [3] 97 % of control | [4] 100 % of control | endpoint: mean survival time, dose: 200.0 mg/kg/injection, schedule: Q02DX Z (oral), vehicle: Klucel (hydroxypropylcellulose) (HPC) 96 % of control and 98 % of control | [5] 95 % of control | endpoint: mean survival time, dose: 400.0 mg/kg/injection, schedule: Q02DX Z (oral), vehicle: Klucel (hydroxypropylcellulose) (HPC) 107 % of control and 91 % of control | [6] 103 % of control | endpoint: mean survival time, dose: 800.0 mg/kg/injection, schedule: Q02DX Z (oral), vehicle: Klucel (hydroxypropylcellulose) (HPC) 101 % of control and 104 % of control | endpoint: mean survival time, dose: 1600.0 mg/kg/injection, schedule: Q02DX Z (oral), vehicle: Klucel (hydroxypropylcellulose) (HPC) 95 % of control and 89 % of control | endpoint: median survival time, dose: 6.25 mg/kg/injection, schedule: Q01DX005 (ip), vehicle: other 106 % of control | endpoint: median survival time, dose: 12.5 mg/kg/injection, schedule: Q01DX005 (ip), vehicle: Klucel (hydroxypropylcellulose) (HPC) 110 % of control | endpoint: median survival time, dose: 12.5 mg/kg/injection, schedule: Q01DX005 (ip), vehicle: other 107 % of control | endpoint: median survival time, dose: 12.5 mg/kg/injection, schedule: Q01DX005 (oral), vehicle: other 117 % of control | endpoint: median survival time, dose: 25.0 mg/kg/injection, schedule: Q01DX005 (ip), vehicle: Klucel (hydroxypropylcellulose) (HPC) 101 % of control | endpoint: median survival time, dose: 25.0 mg/kg/injection, schedule: Q01DX005 (ip), vehicle: other 111 % of control | endpoint: median survival time, dose: 25.0 mg/kg/injection, schedule: Q01DX005 (oral), vehicle: Klucel (hydroxypropylcellulose) (HPC) 117 % of control | endpoint: median survival time, dose: 25.0 mg/kg/injection, schedule: Q01DX005 (oral), vehicle: other 114 % of control and 119 % of control | endpoint: median survival time, dose: 25.0 mg/kg/injection, schedule: Q02DX005 (oral), vehicle: other 104 % of control | endpoint: median survival time, dose: 50.0 mg/kg/injection, schedule: Q01DX005 (ip), vehicle: Klucel (hydroxypropylcellulose) (HPC) 97 % of control | endpoint: median survival time, dose: 50.0 mg/kg/injection, schedule: Q01DX005 (ip), vehicle: other 117 % of control | endpoint: median survival time, dose: 50.0 mg/kg/injection, schedule: Q01DX005 (oral), vehicle: Klucel (hydroxypropylcellulose) (HPC) 114 % of control | endpoint: median survival time, dose: 50.0 mg/kg/injection, schedule: Q01DX005 (oral), vehicle: other 93 % of control and 111 % of control | endpoint: median survival time, dose: 50.0 mg/kg/injection, schedule: Q02DX005 (oral), vehicle: other 104 % of control | endpoint: median survival time, dose: 100.0 mg/kg/injection, schedule: Q01DX005 (ip), vehicle: Klucel (hydroxypropylcellulose) (HPC) 106 % of control | endpoint: median survival time, dose: 100.0 mg/kg/injection, schedule: Q01DX005 (ip), vehicle: other 103 % of control | endpoint: median survival time, dose: 100.0 mg/kg/injection, schedule: Q01DX005 (oral), vehicle: Klucel (hydroxypropylcellulose) (HPC) 114 % of control | endpoint: median survival time, dose: 100.0 mg/kg/injection, schedule: Q01DX005 (oral), vehicle: other 93 % of control and 107 % of control | endpoint: median survival time, dose: 100.0 mg/kg/injection, schedule: Q02DX005 (oral), vehicle: other 104 % of control | endpoint: median survival time, dose: 200.0 mg/kg/injection, schedule: Q01DX005 (ip), vehicle: Klucel (hydroxypropylcellulose) (HPC) 92 % of control | endpoint: median survival time, dose: 200.0 mg/kg/injection, schedule: Q01DX005 (oral), vehicle: Klucel (hydroxypropylcellulose) (HPC) 94 % of control and 117 % of control | endpoint: median survival time, dose: 200.0 mg/kg/injection, schedule: Q01DX005 (oral), vehicle: other 98 % of control and 111 % of control | endpoint: median survival time, dose: 200.0 mg/kg/injection, schedule: Q02DX005 (oral), vehicle: Klucel (hydroxypropylcellulose) (HPC) 100 % of control | endpoint: median survival time, dose: 200.0 mg/kg/injection, schedule: Q02DX005 (oral), vehicle: other 119 % of control | endpoint: median survival time, dose: 400.0 mg/kg/injection, schedule: Q01DX005 (ip), vehicle: Klucel (hydroxypropylcellulose) (HPC) 102 % of control | endpoint: median survival time, dose: 400.0 mg/kg/injection, schedule: Q01DX005 (oral), vehicle: Klucel (hydroxypropylcellulose) (HPC) 104 % of control and 114 % of control | endpoint: median survival time, dose: 400.0 mg/kg/injection, schedule: Q02DX005 (oral), vehicle: Klucel (hydroxypropylcellulose) (HPC) 101 % of control | endpoint: median survival time, dose: 800.0 mg/kg/injection, schedule: Q01DX005 (ip), vehicle: Klucel (hydroxypropylcellulose) (HPC) 104 % of control | endpoint: median survival time, dose: 800.0 mg/kg/injection, schedule: Q01DX005 (oral), vehicle: Klucel (hydroxypropylcellulose) (HPC) 101 % of control | endpoint: median survival time, dose: 800.0 mg/kg/injection, schedule: Q02DX005 (oral), vehicle: Klucel (hydroxypropylcellulose) (HPC) 104 % of control | endpoint: median survival time, dose: 1600.0 mg/kg/injection, schedule: Q01DX005 (oral), vehicle: Klucel (hydroxypropylcellulose) (HPC) 104 % of control and 114 % of control | endpoint: median survival time, dose: 1600.0 mg/kg/injection, schedule: Q02DX005 (oral), vehicle: Klucel (hydroxypropylcellulose) (HPC) 119 % of control

CCc1ccc2c(c1)Nc1ccccc1S2
inactive: [1] 97 % of control | endpoint: mean survival time, dose: 50.0 mg/kg/injection, schedule: Q04DX003 (ip), vehicle: Klucel (hydroxypropylcellulose) (HPC) 91 % of control | [2] 97 % of control | [3] 96 % of control | [4] 101 % of control | [5] 97 % of control | [6] 86 % of control

O=C(COc1ccccc1)NC(=S)Nc1ccc(F)c([N+](=O)[O-])c1
inactive: endpoint: mean survival time, dose: 100.0 mg/kg/injection, schedule: Q01DX001 (ip), vehicle: saline with Tween-80 113 % of control | endpoint: mean survival time, dose: 100.0 mg/kg/injection, schedule: Q01DX009 (ip), vehicle: saline with Tween-80 100 % of control and 86 % of control | endpoint: mean survival time, dose: 100.0 mg/kg/injection, schedule: Q04DX002 (ip), vehicle: saline with Tween-80 94 % of control and 119 % of control | endpoint: mean survival time, dose: 200.0 mg/kg/injection, schedule: Q01DX001 (ip), vehicle: saline with Tween-80 98 % of control | endpoint: mean survival time, dose: 200.0 mg/kg/injection, schedule: Q01DX009 (ip), vehicle: saline with Tween-80 99 % of control and 116 % of control | endpoint: mean survival time, dose: 200.0 mg/kg/injection, schedule: Q04DX002 (ip), vehicle: saline with Tween-80 102 % of control and 103 % of control | endpoint: mean survival time, dose: 400.0 mg/kg/injection, schedule: Q01DX001 (ip), vehicle: saline with Tween-80 95 % of control | endpoint: mean survival time, dose: 400.0 mg/kg/injection, schedule: Q01DX009 (ip), vehicle: saline with Tween-80 102 % of control | endpoint: mean survival time, dose: 400.0 mg/kg/injection, schedule: Q04DX002 (ip), vehicle: saline with Tween-80 104 % of control and 87 % of control

CCCCC(CC)CNCC(CC)CCCC (centres undefined)
inactive: endpoint: mean survival time, dose: 25.0 mg/kg/injection, schedule: Q04DX003 (ip), vehicle: carboxymethylcellulose (CMC) 100 % of control | endpoint: mean survival time, dose: 50.0 mg/kg/injection, schedule: Q04DX003 (ip), vehicle: carboxymethylcellulose (CMC) 102 % of control | endpoint: mean survival time, dose: 100.0 mg/kg/injection, schedule: Q04DX003 (ip), vehicle: carboxymethylcellulose (CMC) 97 % of control | endpoint: mean survival time, dose: 100.0 mg/kg/injection, schedule: Q04DX013 (ip), vehicle: carboxymethylcellulose (CMC) 96 % of control

COc1cccc(CNC(C)(C)CO)c1
inactive: endpoint: mean survival time, dose: 75.0 mg/kg/injection, schedule: Q01DX001 (ip), vehicle: saline 95 % of control | endpoint: mean survival time, dose: 150.0 mg/kg/injection, schedule: Q01DX001 (ip), vehicle: saline 102 % of control | endpoint: mean survival time, dose: 300.0 mg/kg/injection, schedule: Q01DX001 (ip), vehicle: saline 104 % of control
